Assay [1] has as its system TGF-β1 binding to intact human plasma FN. In words: Inhibition of I125 TGF-β1 binding to immobilized FN by growth factor peptide. The settings on record: increasing concentrations of peptide; 25° C., 2 hours. Here is the method:
(§1) FIG. 9. Inhibition of TGF-β1 and PDGF-BB binding to intact human plasma FN with TGF-β1 and PDGF-BB FN-binding peptides, respectively. FN was adsorbed onto tissue culture plastic at a concentration of 0.125 μM and then excess protein-binding sites of the plastic blocked with 2% bovine serum albumin. Growth factor labeled with I^125 was incubated with FN-coated plates at 25° C. for 2 hours in the presence or absence of peptide. Data was calculated as [(GF binding in presence of peptide−background)/(GF binding in absence of peptide-background)]×100. n=3.
(§2) Two of these synthetic peptides (homologous to TGF-β1 and homologous to PDGF-BB) inhibit TGF-β1 and PDGF-BB binding to FN respectively (FIG. 9). Inhibition of TGF-β1 and PDGF-BB binding to intact human plasma FN was determined as follows. FN was adsorbed onto tissue culture plastic at a concentration of 0.125 μM and then excess protein-binding sites of the plastic blocked with 2% bovine serum albumin. Growth factor labeled with I^125 was incubated with FN-coated plates at 25° C. for 2 hours in the presence or absence of peptide. For example, relative binding of TGF-β1 to immobilized FN was determined for increasing concentrations of the synthetic peptide homologous to TGF-β1. […] For example, relative binding of PDGF-BB to immobilized FN was determined for increasing concentrations of the synthetic peptide homologous to PDGF-BB. […]

The test system of assay [2] is PDGF-BB binding to intact human plasma FN. In words: Inhibition of I125 PDGF-BB binding to immobilized FN by growth factor peptide. The settings on record: increasing concentrations of peptide; 25° C., 2 hours. As for the experimental part: as §1, §2
The subject of another assay is FN-null cells. Nature of the assay: FN-null cell assay, peptides added directly to medium on FNIII8-11. Format: cell-based, mouse. The note with it: peptide added directly to media with or without PDGF-BB. Here is the method:
FIG. 6. FN-null fibroblast response to soluble, unconjugated P5 (SEQ ID NO:37). FN-null cells were cultured at 4,000 cells/well in 96 well plates precoated with 0.125 mM of FNIII8-11 in DMEM for 4 hrs, and then further incubated in DMEM+2% BSA with or without the indicated concentrations of Peptide 5 at 37° C. for 3 days. Cells were counted in three 10× fields in each of 4 wells (mean±SD, n−12).
Scrambled variants of peptides 1 and 5 had no activity in these assays.
Variants of peptide 5 derived from fibronectin were generated by removing one amino acid at a time from the N-terminus or C-terminus of Peptide 5 (Table 2). These peptides (P12-P24) were added directly to medium with or without PDGF-BB.

A further assay relates to AHDF cells. Nature of the assay: AHDF proliferation response to PDGF-BB, XTT assay. The settings on record: 30 ng/mL PDGF-BB, 1 week. Format: cell-based, human. As for the experimental part: FIG. 7. […] AHDF cells were cultured at 4,000 cells/well in uncoated 96-well plates. Cells were incubated in DMEM for 4 hrs, and then further incubated in DMEM, 2% BSA, 30 ng/mL PDGF-BB with and without Peptide 5 (P5) at 37° C. for 1 week. Proliferation was estimated by the XTT assay (Promega) according to the manufacturer's instructions (mean±SD, n=4).

No end group written: not given here.

PDGF-BB binding to intact human plasma FN, sequence (P02751 610-812 limits assumed): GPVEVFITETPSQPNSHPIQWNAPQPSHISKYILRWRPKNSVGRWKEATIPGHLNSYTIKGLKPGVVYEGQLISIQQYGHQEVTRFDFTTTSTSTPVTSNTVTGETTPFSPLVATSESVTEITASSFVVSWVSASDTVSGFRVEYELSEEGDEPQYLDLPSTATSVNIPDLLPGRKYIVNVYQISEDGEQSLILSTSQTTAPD
PDGF-BB binding to intact human plasma FN, sequence (P02751 1815-2080 limits assumed): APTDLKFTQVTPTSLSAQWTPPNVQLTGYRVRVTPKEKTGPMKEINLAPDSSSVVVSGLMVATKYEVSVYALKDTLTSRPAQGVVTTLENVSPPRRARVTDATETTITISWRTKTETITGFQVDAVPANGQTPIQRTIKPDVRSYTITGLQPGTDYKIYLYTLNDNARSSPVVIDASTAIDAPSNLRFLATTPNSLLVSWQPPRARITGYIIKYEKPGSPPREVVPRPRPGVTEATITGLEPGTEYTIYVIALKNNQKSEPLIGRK
TGF-β1 binding to intact human plasma FN, sequence (P02751 610-812 limits assumed): as the sequence (P02751 610-812 limits assumed) above
TGF-β1 binding to intact human plasma FN, sequence (P02751 1815-2080 limits assumed): as the sequence (P02751 1815-2080 limits assumed) above

Regarding “CCVRQLYIDFRKDLG [synthetic peptide homologous to TGF-β1]”, the “Proportion of full-length TGF-β1 bound to immobilized FN” value in assay [1] is recorded as “decreased with increasing concentration”. Regarding “CKTRTEVFEISRRLI [synthetic peptide homologous to PDGF-BB]”, in assay [2], the “Proportion of full-length PDGF-BB bound to immobilized FN” value is reported as “decreased with increasing concentration”. For the sequence QPSHISKYILRWRPK [P5, QPSHISKYILRWRPK], the “FN null cell survival and proliferation” value with FN-null cells was “supported FN null cell survival and proliferation”. In addition, the “AHDF proliferation response to PDGF-BB” value with AHDF cells is reported as “enhanced AHDF proliferation response to PDGF-BB”.

The values are drawn from patent publication US8759300B2, “Polypeptides and methods of use” (The Research Foundation for the State University of New York, priority 2007, dated 2014).
